{"source": "patent US12194230B2", "about": "“Methods, devices and systems for pulmonary delivery of active agents” (priority 2014, dated 2025)", "key": {"[1]": {"assay": "PK/PD study: plasma Δ^9-THC levels after single-dose inhalation of Cannabis flos with the metered-dose inhaler"}, "[2]": {"system": "patients suffering from chronic neuropathic pain", "conditions": "cited from earlier work; for reduction of pain intensity: vaporized 10.3 mg total available Δ^9-THC in two sessions"}, "[3]": {"system": "patients suffering from neuropathic pain", "assay": "VAS pain intensity after single-dose inhalation (PK/PD study)", "assay_type": "in vivo, human", "description": "The study was used to further evaluate the pharmacodynamic effect of pulmonary delivery of Δ^9-THC on pain reduction from baseline using a 10 cm visual analog scale (VAS) pain scale (0 being no pain; and 10 being worst possible pain); for monitoring adverse effects, blood pressure and heart rate, and for estimating the degree of satisfaction with the use of the MDI on a 0-10 scale.\n(§1) Pain intensity reduction was assessed as a therapeutic effect by asking participants to indicate the intensity of their current pain on a 100 mm visual analog scale (VAS) between 0 (no pain) and 100 (worst possible pain) at baseline (prior to the inhalation) and at 20 and 90 minutes following the pulmonary delivery of the pharmaceutically active agent from cannabis. Adverse effects, in the form of psychotropic symptoms, were recorded at 5, 15, 30, 60 and 120 minutes post pulmonary delivery, along with those spontaneously reported by the participants. Adverse effects were evaluated according to standardized criteria in terms of severity, frequency, duration and relationship to the study's active agent. Adverse effects were graded using the NIH Division of AIDS table for scoring severity of adult adverse experiences. Blood pressure and pulse rate were also recorded before, during and after the pulmonary delivery.\n(§2) Results are reported herein as mean values±1 standard deviation (±SD). For each one of the measured effects (VAS pain intensity, systolic and diastolic blood pressure, heart rate and satisfaction score), the mean and 95% confidence interval (CI) at different time points was plotted. Differences between VAS pain intensity values and satisfaction scores, before and after inhalation, were tested by two-tailed paired Student t-test. Blood pressure and heart rate values were compared among different time points by one-way ANOVA. P-values<0.05 were accepted as significant. All statistical analyses were performed using Minitab Statistical Software, version 16."}, "[4]": {"conditions": "cited from earlier work; for mean Cmax increase per mg Δ^9-THC: Huestis et al."}, "[5]": {"system": "patients suffering from neuropathic pain", "assay": "Adverse effects, blood pressure and heart rate after single-dose inhalation (PK/PD study)", "assay_type": "in vivo, human", "conditions": "for heart rate: baseline 71±12, P=0.873; for mean diastolic blood pressure: baseline 82±9, P=0.410; for mean systolic blood pressure: baseline 133±13, P=0.068; for adverse effects (overall): single inhalation, 8 patients", "description": "as §1, §2"}, "[6]": {"conditions": "single inhalation, 3.08±0.02 mg total available Δ^9-THC"}}, "note": "Values joined by “and” are separate entries in the source; they are usually repeats but may differ in a detail not shown here. Equal values may be shown once. Read-outs that look alike come from different tables or passages of the source.", "data": [{"compound": "CCCCCc1cc(O)c2c(c1)OC(C)(C)[C@@H]1CCC(CO)=C[C@@H]21", "note": "[11-OH-THC, 11-hydroxy Δ^9-THC]", "values": [{"measurement": "plasma levels of the active metabolite", "setting": "[1]; blood sampling 0-120 minutes after inhalation", "value": "No measurable plasma levels"}]}, {"compound": "CCCCCc1cc(O)c2c(c1)OC(C)(C)[C@@H]1CCC(C)=C[C@@H]21", "note": "[Δ^9-THC, Δ9-tetrahydrocannabinol]", "values": [{"measurement": "mean Cmax elevation", "setting": "[2]; Ware et al. 2010, single smoke inhalation of 25±1 mg cannabis with 9.4% Δ^9-THC (2.35 mg), three times a day for 5 days", "value": 45, "unit": "ng/mL"}, {"measurement": "decrease in average daily pain intensity", "setting": "[2]; Ware et al. 2010, single smoke inhalation of 25±1 mg cannabis with 9.4% Δ^9-THC, three times a day for 5 days, compared to placebo", "value": 11.4, "unit": "%"}, {"measurement": "reduction of neuropathic pain (plateau, ceiling effect)", "setting": "[2]; Wilsey et al. 2008, smoking 19 mg or 34 mg total available Δ^9-THC divided to 3 doses", "value": 45, "unit": "%"}, {"measurement": "analgesic response compared with the 10.3 mg dose", "setting": "[2]; Wilsey et al. 2013, THC dose increased to 28.2 mg", "value": "equianalgesic response"}, {"measurement": "reduction of pain intensity", "setting": "[2]; Wilsey et al. 2013, 3 hours", "value": 31, "unit": "%"}, {"measurement": "reduction of pain intensity", "setting": "[2]; Wilsey et al. 2013, 5 hours", "value": 25, "unit": "%"}, {"measurement": "decrease of VAS pain intensity from baseline (difference)", "setting": "[3]; 20 minutes after inhalation, baseline 7.5±1.4, 95% CI 2.1-4.9, P=0.001", "value": 3.4, "unit": "points"}, {"measurement": "VAS pain intensity versus baseline", "setting": "[3]; 90 minutes post-dosing", "value": "virtually identical results as at baseline"}, {"measurement": "reduction of pain intensity", "setting": "[3]; [6]", "value": 45, "unit": "%"}, {"measurement": "time within which the pain reduction reversed", "setting": "[3]; [6]", "value": "≤ 90", "unit": "min"}, {"measurement": "inter-individual variability (CV) of peak plasma THC concentration (Cmax)", "setting": "[1]; MDI device", "value": 25.3, "unit": "%"}, {"measurement": "increase of Cmax per mg of THC available in the cannabis used (mean)", "setting": "[1]; pulmonary delivery with the MDI device", "value": 12.3, "unit": "ng/mL/mg"}, {"measurement": "time of first detection in blood sample post-inhalation", "setting": "[1]; six patients without residual plasma THC at baseline", "value": 1, "unit": "min"}, {"measurement": "increase of Cmax per mg of THC", "setting": "[4]; Volcano vaporizer, Abrams et al. 2007, 2011", "value": "6.1 to 9.0", "unit": "ng/mL/mg"}, {"measurement": "mean Cmax increase per mg Δ^9-THC", "setting": "[4]; after the first puff of a 1.75% Δ^9-THC cigarette", "value": 3.54, "unit": "ng/ml per mg"}, {"measurement": "mean Cmax increase per mg Δ^9-THC", "setting": "[4]; after the first puff of a 3.55% Δ^9-THC cigarette", "value": 4.28, "unit": "ng/ml per mg"}, {"measurement": "plasma Cmax per mg of Δ^9-THC administered", "setting": "[4]; intravenous administration, D'Souza et al. 2004", "value": "32.8 ng Δ^9-THC/ml plasma and 23.8 ng Δ^9-THC/ml plasma"}, {"measurement": "inter-individual variability (CV) of Cmax", "setting": "[4]; oral administration", "value": "42-115%"}, {"measurement": "inter-individual variability (CV) of Cmax", "setting": "[4]; oromucosal route of delivery", "value": "59-67%"}, {"measurement": "increase of Cmax per mg of THC", "setting": "[4]; regular smoking cigarettes, Ohlsson, Hunault, Huestis", "value": "0.6 to 4.6", "unit": "ng/mL/mg"}, {"measurement": "inter-individual variability (CV) of Cmax", "setting": "[4]; smoking cigarettes", "value": "32-115%"}, {"measurement": "time of peak plasma concentrations", "setting": "[4]; smoking products of cannabis", "value": "1 to 3", "unit": "min"}, {"measurement": "bioavailability", "setting": "[4]; smoking route, listed as THC", "value": "2-56% and 2 to 56%"}, {"measurement": "first onset of effects", "setting": "[4]; smoking", "value": "about 7 minutes"}, {"measurement": "inter-individual variability (CV) of Cmax", "setting": "[4]; vaporizer", "value": "47-85%"}, {"measurement": "heart rate", "setting": "[5]; 30 minutes post-inhalation", "value": "72±11", "unit": "bpm"}, {"measurement": "mean diastolic blood pressure", "setting": "[5]; 30 minutes post-inhalation", "value": "75±10", "unit": "mm Hg"}, {"measurement": "mean systolic blood pressure", "setting": "[5]; 30 minutes post-inhalation", "value": "122±10", "unit": "mm Hg"}, {"measurement": "heart rate", "setting": "[5]; 90 minutes post-inhalation", "value": "69±13", "unit": "bpm"}, {"measurement": "mean diastolic blood pressure", "setting": "[5]; 90 minutes post-inhalation", "value": "81±12", "unit": "mm Hg"}, {"measurement": "mean systolic blood pressure", "setting": "[5]; 90 minutes post-inhalation", "value": "121±11", "unit": "mm Hg"}, {"measurement": "time to full recovery from light headedness", "setting": "[5]; all the other patients", "value": "≤ 30", "unit": "min"}, {"measurement": "patients experiencing light headedness", "setting": "[5]; first 10 minutes following inhalation, seven of eight patients", "value": 87.5, "unit": "%"}, {"measurement": "adverse effects (overall)", "setting": "[5]", "value": "minimal, reversible and well tolerated"}, {"measurement": "adverse effects (overall)", "setting": "[5]; listed as THC", "value": "minimal, reversible and receded rapidly"}, {"measurement": "time to full recovery from light headedness", "setting": "[5]; three patients", "value": "≤ 15", "unit": "min"}]}]}
